# Laboratory results as given in PMC8179002, “Inhibitors of thiol-mediated uptake” (Chemical Science, 2020).
# Where two headings read alike, the source gives them in different places.
# Legend:
# [1] = system: cellular uptake of 2 in HeLa Kyoto cells; test: cells; type: cell-based; details: for IC50: HeLa Kyoto
# Procedure: (§1) With COCs 1 and 2 as cell-penetrating reporters, a fully automated, fluorescent microscopy image-based high-content high-throughput (HCHT)[19] inhibitor screening assay was developed. HeLa cells in multiwell plates are incubated with a reporter at constant and inhibitors at varying concentrations and incubation times. Hindered reporter uptake then causes decrease of fluorescence inside of cells (Fig. 3a). Automated data analysis[19] was established to extract average fluorescence intensity per cell and, at the same time, cell viability from propidium iodide negative nuclei count (Fig. 3 and S3–S6 ^†). Standard assay conditions consisted of pre-incubation of HeLa cells with inhibitors for different periods of time, followed by the removal of inhibitors and the addition of reporters, thus excluding possible interactions between the two in the extracellular environment. In alternative co-incubation conditions, inhibitors were not removed before the addition of reporters to allow for eventual interactions between the two.
# (§2) 4. High-Content High-Throughput (HCHT) Inhibitor Screening
# (§3) 4.1. General Procedure for HCHT Inhibitor Screening
# (§4) 4.1.1. Pre-Incubation of Inhibitors
# (§5) HeLa Kyoto cells were seeded at 1.2 ×10^4 cells/well in FluoroBrite DMEM + 10% FBS on μ-Plate 96-well Black ibiTreat sterile and kept at 37 °C with 5% CO2 overnight. Next day, serial dilutions of the inhibitors in PBS (10x final concentration), reporter 1 or 2 (100 μM in PBS) and a solution of Hoechst 33342 (100 μg/mL) and PI (10 μg/mL) in PBS were prepared freshly in a 96-well V-bottom plate. Then, cells were washed with PBS ([…]) and the media was exchanged to FluoroBrite DMEM (4 x 150 μL/well) using a plate washer (Biotek EL406®), keeping always a final volume of 135 μL/well. The inhibitor solutions from the V-bottom plate were added to the cells (15 μL/well, 10x final concentration in PBS) using an electronic multichannel pipettes to reach a final volume of 150 μL/well. Cells were incubated for the time of interest (for details of each inhibitors, see Section 4.3 and 4.4) at 37 °C with 5%
# (§6) CO2. After this, cells were washed again using the plate washer and reporter solution 1 or 2 from the V-bottom plate was added (15 μL/well) using an electronic multichannel pipettes to reach a final volume of 150 μL/well and a final concentration of 10 μM, except for the control wells, where only PBS was added (15 μL/well). After 30 min of incubation at 37 °C with 5% CO2, the plate was washed again using the plate washer. Then, the solution of Hoechst 33342 and PI from V-bottom plate was added (15 μL/well) using an electronic multichannel pipettes to reach a final volume of 150 μL/well. After 15 min of incubation at 37 °C with 5% CO2, the plate was washed one last time and the cells were kept in clean FluoroBrite DMEM. During imaging, samples were kept at 37 °C with 5% CO2 in the microscope.
# (§7) 4.1.2. Co-Incubation of Inhibitors and Reporters […]
# (§8) serial dilutions of the inhibitors in PBS (10x final concentration), reporter 1 or 2 (110 μM in […]
# (§9) freshly in a 96-well V-bottom plate. Then, cells were washed with the plate washer. The inhibitor solutions from the V-bottom plate were added to the cells (15 μL/well, 10x final concentration in PBS) using an electronic multichannel pipettes to reach a final volume of 150 μL/well. Cells were incubated for the time of interest (for details of each inhibitors, see Section 4.3 and 4.4) at 37 °C with 5% CO2. Reporter solution 1 or 2 from V-bottom plate was then added (15 μL/well) using an electronic multichannel pipettes to reach a final volume of 165 μL/well and a final concentration of 10 μM 30 min before the next washing process, except for the control wells, where only PBS was added (15 μL/well). The plate was washed again using the plate washer. The solution of Hoechst 33342 and PI from V-bottom plate was added (15 μL/well) using an electronic multichannel pipettes to reach a final volume of 150 μL/well. After […]
# [2] = system: cellular uptake of 1 in HeLa Kyoto cells; test: cells; type: cell-based; details: HeLa; for IC50 / minimal effective concentration: HeLa Kyoto; for IC50: read-out: IC50, inhibition of cellular uptake of 1; for minimal effective concentration: read-out: MIC, inhibition of cellular uptake of 1; for MIC (concentration that causes ∼15% reduction of reporter uptake), against reporter 1: pre-incubation time not given (Fig. 2: 1 h pre-incubation, 30 min with reporter; some 15 min)
# Procedure: as §1, §2, §3, §4, §5, §6, §7, §8, §9
# [3] = HeLa, tpre 4 h with inhibitor, removal, tinc 0.5 h with 2 (10 µM), read-out: IC50, inhibition of cellular uptake of 2
# [4] = HeLa, tpre 6 h with FBS, removal, tinc 0.5 h with 2 (10 µM), read-out: IC50, inhibition of cellular uptake of 2
# [5] = HeLa, tpre 0.5 h, then tco 0.5 h co-incubation of inhibitor and 2 (10 µM)
# [6] = HeLa, tpre 4 h with inhibitor, removal, tinc 0.5 h with 2 (10 µM)
# [7] = HeLa, tpre 6 h with FBS, removal, tinc 0.5 h with 2 (10 µM)
# [8] = 0.5 h, tpre 0.5 h, then tco 0.5 h co-incubation of inhibitor and 1 (10 µM)
# [9] = 0.5 h, tpre 0.5 h with inhibitor, removal, tinc 0.5 h with 1 (10 µM)
# [10] = 0.5 h, tpre 5.5 h with FBS, then tco 0.5 h co-incubation of inhibitor and 1 (10 µM)
# [11] = 0.5 h, tpre 23.5 h with FBS, then tco 0.5 h co-incubation of inhibitor and 1 (10 µM)
# [12] = 1 h, tpre 1 h with inhibitor, removal, tinc 0.5 h with 1 (10 µM)
# [13] = 2 h, tpre 2 h with inhibitor, removal, tinc 0.5 h with 1 (10 µM)
# [14] = 4 h, tpre 4 h with inhibitor, removal, tinc 0.5 h with 1 (10 µM)
# [15] = tpre 1 h with inhibitor, removal, tinc 0.5 h with 1 (10 µM)
# [16] = tpre 2 h with inhibitor, removal, tinc 0.5 h with 1 (10 µM)
# [17] = tpre 4 h with inhibitor, removal, tinc 0.5 h with 1 (10 µM)
# [18] = tpre 5.5 h with FBS, then tco 0.5 h co-incubation of inhibitor and 1 (10 µM)
# [19] = tpre 23.5 h with FBS, then tco 0.5 h co-incubation of inhibitor and 1 (10 µM)
# [20] = read-out: IC50, inhibition of cellular uptake of 2, HeLa, tpre 4 h with inhibitor, removal, tinc 0.5 h with 2 (10 µM)
# [21] = HeLa, tpre 23.5 h with FBS, then tco 0.5 h co-incubation of inhibitor and 2 (10 µM)
Structure (SMILES),"IC50 [1, 3] [µM]","IC50 [1, 4] [µM]","MIC, inhibition of cellular uptake of 2 [1, 5] [µM]","MIC, inhibition of cellular uptake of 2 [1, 6] [µM]","MIC, inhibition of cellular uptake of 2 [1, 7] [µM]","IC50 [2, 8] [µM]","minimal effective concentration [2, 8] [µM]","IC50 [2, 9] [µM]","minimal effective concentration [2, 9] [µM]","minimal effective concentration [2, 10] [µM]","minimal effective concentration [2, 11] [µM]","minimal effective concentration [2, 12] [µM]","minimal effective concentration [2, 13] [µM]","minimal effective concentration [2, 14] [µM]","IC50 [2, 15] [µM]","IC50 [2, 16] [µM]","IC50 [2, 17] [µM]","IC50 [2, 18] [µM]","IC50 [2, 19] [µM]","IC50 [1, 20] [µM]",other results
CCN1C(=O)C2SSC1C(=O)N2CC(=O)O (stereo not shown) [compound 4],> 2,> 100,20,> 2,80,2 ± 0.2,0.3,4.4 ± 1.3,< 0.1,0.3,8.1,0.1,0.1,0.1,1.1 ± 0.1,1.5 ± 0.1,2.1 ± 0.2,4.9 ± 0.5,66 ± 14,,"IC50 ([1]; 0.5 h, HeLa, tpre 0.5 h, then tco 0.5 h co-incubation of inhibitor and 2 (10 µM), read-out: IC50, inhibition of cellular uptake of 2): > 20 µM; IC50 ([1]; HeLa, tpre 1 h with inhibitor, removal, tinc 0.5 h with 2 (10 µM), read-out: IC50, inhibition of cellular uptake of 2): > 20 µM; MIC, inhibition of cellular uptake of 2 ([1]; HeLa, tpre 1 h with inhibitor, removal, tinc 0.5 h with 2 (10 µM)): > 20 µM"
O=C(O)CNC(=O)c1ccc2c(c1)SSSSS2 [compound 6],,,> 20,4,60,5.1 ± 0.3,0.5,93 ± 28,0.3,5,12,0.3,0.4,0.4,35 ± 9,23 ± 6,24 ± 5,20 ± 1,> 20,> 10,"IC50 ([1]; 0.5 h, read-out: IC50, inhibition of cellular uptake of 2, HeLa, tpre 0.5 h, then tco 0.5 h co-incubation of inhibitor and 2 (10 µM)): > 20 µM; IC50 ([1]; read-out: IC50, inhibition of cellular uptake of 2, HeLa, tpre 6 h with FBS, removal, tinc 0.5 h with 2 (10 µM)): > 100 µM; MIC against reporter 2 ([1]; HeLa, longer pre-incubation (Fig. 2: 4 h pre-incubation)): 4 µM; MIC (concentration that causes ∼15% reduction of reporter uptake), against reporter 1 [2]: ≈ 0.3 μM"
O=C(CN1C(=O)C2SSC1C(=O)N2CCOc1ccccc1)NCC(=O)OC[C@H]1OC(O)[C@H](O)[C@@H](O)[C@@H]1O (stereo partly shown) [compound 7],> 100,> 200,,70,180,,,23 ± 4,0.5,6,54,0.5,0.2,,27 ± 4,15 ± 1,,42 ± 4,> 100,,"IC50 ([1]; HeLa, tpre 23.5 h with FBS, then tco 0.5 h co-incubation of inhibitor and 2 (10 µM), read-out: IC50, inhibition of cellular uptake of 2): 41 ± 4 µM; MIC, inhibition of cellular uptake of 2 [1, 21]: 15 µM; MIC (concentration that causes ∼15% reduction of reporter uptake), against reporter 1 [2]: ≈ 0.5 μM"
O=C(O)CC[C@H](NC(=O)CN1C(=O)C2SSC1C(=O)N2CCOc1ccccc1)C(=O)O (stereo partly shown) [compound 9],> 100,> 200,,60,80,,,89 ± 9,15,,,7,7,,86 ± 13,> 100,,,,,
O=C(O)CC[C@H](NC(=O)CCCCC1CCSS1(=O)=O)C(=O)O (stereo partly shown) [compound 15],,,,150,,,,407 ± 49,100,65,55,50,50,,306 ± 30,298 ± 31,,258 ± 33,219 ± 16,> 500,"IC50 ([1]; read-out: IC50, inhibition of cellular uptake of 2, HeLa, tpre 23.5 h with FBS, then tco 0.5 h co-incubation of inhibitor and 2 (10 µM)): > 500 µM; MIC, inhibition of cellular uptake of 2 [1, 21]: < 20 µM"
